Measured values taken from PMC5805707 (Scientific Reports, 2018).

Biological target: T1, cytochrome bd (Mycobacterium tuberculosis, UniProt L7N662)
T1 construct: gene cydA; native complex in inverted membrane vesicles of strain mc^2 6020
Test: NADH-driven oxygen consumption of inverted membrane vesicles (Clark electrode); maximal inhibition […]
Format: biochemical

T1 sequence (O06139 entry or part of it): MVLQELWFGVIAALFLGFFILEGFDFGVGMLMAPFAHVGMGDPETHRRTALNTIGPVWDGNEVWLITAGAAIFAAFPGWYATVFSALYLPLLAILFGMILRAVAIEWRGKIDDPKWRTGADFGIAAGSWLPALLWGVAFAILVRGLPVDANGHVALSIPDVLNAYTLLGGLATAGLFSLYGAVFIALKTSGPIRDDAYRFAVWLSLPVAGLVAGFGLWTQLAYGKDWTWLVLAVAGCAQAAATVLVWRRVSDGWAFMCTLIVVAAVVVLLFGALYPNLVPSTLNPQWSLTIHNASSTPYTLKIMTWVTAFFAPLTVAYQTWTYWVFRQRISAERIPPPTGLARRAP
T1 sequence (L7N662 entry or part of it): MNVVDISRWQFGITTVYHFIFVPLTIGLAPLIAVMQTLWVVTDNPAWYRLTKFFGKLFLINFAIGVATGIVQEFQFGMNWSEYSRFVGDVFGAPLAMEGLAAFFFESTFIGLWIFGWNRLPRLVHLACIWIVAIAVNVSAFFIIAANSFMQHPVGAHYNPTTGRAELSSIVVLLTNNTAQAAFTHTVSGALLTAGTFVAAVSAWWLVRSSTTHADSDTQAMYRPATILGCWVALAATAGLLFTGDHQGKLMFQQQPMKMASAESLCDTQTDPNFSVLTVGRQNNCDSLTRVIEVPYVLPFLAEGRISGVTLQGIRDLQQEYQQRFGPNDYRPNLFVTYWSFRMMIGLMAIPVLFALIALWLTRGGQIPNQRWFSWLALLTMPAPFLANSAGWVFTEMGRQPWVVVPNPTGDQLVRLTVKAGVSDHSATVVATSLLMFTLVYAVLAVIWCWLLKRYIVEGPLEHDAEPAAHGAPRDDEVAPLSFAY

CC(C)=CCC/C(C)=C/CC/C(C)=C/Cc1c(C)[nH]c2ccccc2c1=O [aurachin D]
IC50: ~400 nM
